Reference: article PMC10254314 (2023)

Key:
[1] = test system: poly A–poly U (pApU) (RNA, polymer) A/U; test: UV thermal melting at 260 nm; details: Na+ (sodium cacodylate, I = 0.05 M), pH 7, r = [compound]/[polynucleotide] = 0.3, polynucleotide 2 × 10^-5 M, per base
[2] = test system: poly dAdT–poly dAdT (AT-DNA) (DNA, polymer) AT; test: UV thermal melting at 260 nm; details: Na+ (sodium cacodylate, I = 0.05 M), pH 7, r = [compound]/[polynucleotide] = 0.3, polynucleotide 2 × 10^-5 M, per base
[3] = test system: poly dAdT–poly dAdT (AT-DNA) (DNA, polymer) AT; test: UV/vis titration, Scatchard (McGhee–von Hippel) fit; details: Na+ (sodium cacodylate, I = 0.05 M), pH 7.0, n fixed 0.2, per base

`COc1cc2c(cc1OC)SC(c1ccc(NCc3ccc(Cl)cc3)cc1)=[N+](C)C2` was tested, and the ΔTm [1] was “+1 ± 0.5 °C”.

A ΔTm [1] of −1.5 ± 0.5 °C was found for `COc1cc2c(cc1OC)SC(c1ccc(NCc3cccc(C)c3)cc1)=[N+](C)C2` in this work.

`COc1ccc(Nc2ccc(C3=[N+](C)Cc4cc(Nc5ccc(OC)cc5)ccc4S3)cc2)cc1` was tested, and the ΔTm [2] was −1.5 ± 0.5 °C, the logKs [3] was 4.9 and the ΔTm [1] was “+3.5 ± 0.5 °C”.

A ΔTm [2] of −2.1 ± 0.5 °C, a logKs [3] of 4.9 and a ΔTm [1] of −1.2 ± 0.5 °C were found for `COc1ccc(Nc2ccc(C3=[N+](C)Cc4cccc(Nc5ccc(OC)cc5)c4S3)cc2)cc1` in this work.
